Test results published in patent US20090203062A1, “Method For Identifying And/Or Quantifying Anti-Infective Compounds” (priority 2005, published 2009).

Legend:
Klebsiella pneumoniae [1] = assay: Klebsiella pneumoniae murine pulmonary infection model; format: in vivo; details: 24 h post-infection, female Balb/cN mice
Method: Klebsiella pulmonary infection model was performed by intranasal instillation of 7-8 weeks old female Balb/cN with 20 μl containing […]. Compound or cefotaxime were injected intraperitoneally every 6 hours from the time of infection at the indicated doses. In vivo efficacy was assessed by measuring colony forming units (CFU) loads in the lungs at 24 h hours. Data analysis was performed using GraphPad Software Inc, San Diego, Calif., USA. Lane 1 is the initial load at time zero of the infection. Lane 2 is the load at 24 hours post-infection of mice treated with the vehicle only.

Klebsiella pneumoniae [2] = details: Tetrahymena pyriformis present; compared with the antibiotic activity IC50; FIG. 9
From the text: Preparation of SM no glucose (SM-) and Tetrahymena Medium is as described in example 1. […] Strains description Same Klebsiella pneumoniae strain is used as in example 1. […] Preparation of Tetrahymena pyriformis (Tp): The same Tp is used as in example 1. The day of the screen, resuspend the Tp cells in SM- and distribute Tp cells in the 384 well plates. […] Liquid dispenser for medium distribution Fill the same number of test plates as above with SM- with the liquid dispenser plate filler. (To test the antibiotic activity of the compounds). […] Description of the mother plate of compounds Each mother plate containing 24 columns of compounds is composed of 4 control columns (1, 12, 13 and 24) of DMSO and 320 wells of compounds. The DMSO columns have to be arranged according to the library. […] Transfer of library compounds with the 384 pin replicator. A test plate for quantifying anti-virulence activity contains Tp solution. A test plate for quantifying antibiotic activity contains SM-. […]
Tp, Klebsiella pneumoniae, compound are prepared as described in example 2 and incubated in a matrix containing 384 wells (12×24) wells at 35° C. in humidity saturated incubator. […] Mutations or compound affecting pathogenicity could be assessed in terms of phenotype strength and potency, respectively with decreasing concentration of Tp.

`C=CCSc1nnc(C)c(O)n1` [3-(allylsulfanyl)-5-hydroxy-6-methyl-1,2,4-triazine] was tested, and the “reduction of CFU load in the lungs” value (Klebsiella pneumoniae [1]; 225 mg/kg/day intraperitoneally every 6 hours) was 4 Log.
In the case of `CO/N=C(\C(=O)N[C@@H]1C(=O)N2C(C(=O)O)=C(COC(C)=O)CS[C@H]12)c1csc(N)n1` [cefotaxime], the “reduction of CFU load in the lungs” value (Klebsiella pneumoniae [1]; 37.5 mg/kg/day intraperitoneally every 6 hours) is reported as 4 Log.
In the case of `COc1cc(Cc2cnc(N)nc2N)cc(OC)c1OC` [trimethoprim], the “concentration at which the avirulence assay detected the antibiotic, lower than the IC50 of the antibiotic (sub-MIC effect)” value (Klebsiella pneumoniae [2]) is reported as 2 Log.
